Some test systems named below: MOLT-4 leukemia; NCI-H460 lung; SNB-75 CNS; A549 NSCLC; MDA-N; UACC-62 melanoma; SK-MEL-28 melanoma; K-562 leukemia; EKVX NSCLC; CAKI-1 renal.
Holding throughout (assay): NCI tumour cell line growth inhibition, 48 h

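Protocol summary: plate cells (96-well), add compound at 5 concentrations, incubate 48 h, interpolate endpoints linearly. TGI is the concentration that stops growth completely.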 Where a SMILES comes first, the peptide text is derived from it. Bridges are numbered along the chain shown (N, C = ends). [ ]: non-standard residue; d: D form. The star is where a group is joined. ξ: configuration not given here. X26 = O=C(/C=C/C=C/C=C/C=C/C=C/C(=O)*)NC1=C(O)CCC1=O; NMeA = CN[C@@H](C)C(=O)O; ξF = NC(Cc1ccccc1)C(=O)O; ξA = CC(N)C(=O)O

With `CC(C)(C)OC(=O)NCCC(N)=S`, the TGI with MOLT-4 leukemia, in the test with NCI-H460 lung, in the test with SNB-75 CNS, in the test with A549 NSCLC, in the test with MDA-N and with UACC-62 melanoma was more than 100 µM in each case. In addition, the TGI in the test with SK-MEL-28 melanoma, in the test with K-562 leukemia and with EKVX NSCLC was more than 100 µM each time.
For `N/C(=N\S(=O)(=O)c1c(C(F)(F)F)cccc1C(F)(F)F)Nc1ccc(Cl)cc1`, the TGI in the test on MOLT-4 leukemia is more than 100 µM; with NCI-H460 lung, more than 100 µM; in the test on SNB-75 CNS, more than 100 µM; with A549 NSCLC it was more than 100 µM; in the test on MDA-N, more than 100 µM; in the test with UACC-62 melanoma it was 50.5 µM. Besides, the values for the TGI in the test with SK-MEL-28 melanoma, with K-562 leukemia and with EKVX NSCLC were more than 100 µM, more than 100 µM and 36.2 µM, respectively.
Consider `CCOC(=O)C(Cl)(Cl)/S(=N\S(=O)(=O)c1ccccc1)NC(=O)c1ccccc1` (configuration not stated), for which the TGI with MOLT-4 leukemia, in the test with NCI-H460 lung, in the test on SNB-75 CNS, in the test with A549 NSCLC, in the test on MDA-N and in the test with UACC-62 melanoma was more than 100 µM throughout. In addition, the TGI in the test on SK-MEL-28 melanoma, in the test on K-562 leukemia and in the test with EKVX NSCLC was more than 100 µM throughout.
Turning to `CC1CN=C(N(C(=O)Nc2ccc(F)c(Cl)c2)c2ccccc2)S1` (configuration not stated), the TGI in the test on MOLT-4 leukemia is 62.2 µM; in the test on NCI-H460 lung, 84.1 µM; in the test with SNB-75 CNS, 63.7 µM; in the test with A549 NSCLC it was 92.1 µM; in the test on MDA-N, 34.7 µM; in the test on CAKI-1 renal it was 67 µM. For the same compound, the figures for the TGI in the test with SK-MEL-28 melanoma, in the test with K-562 leukemia and in the test on EKVX NSCLC were 33.5 µM, more than 100 µM and 62.4 µM, respectively.
As to `Cc1c(N2C(=O)C(Cl)C2c2ccc(Cl)cc2)c(=O)n(-c2ccccc2)n1C` (configuration not stated), the TGI with MOLT-4 leukemia was more than 100 µM; in the test on NCI-H460 lung it was more than 100 µM; in the test with A549 NSCLC it was more than 100 µM; with MDA-N, 81.3 µM; in the test with UACC-62 melanoma, more than 100 µM; with CAKI-1 renal it was more than 100 µM. Also, the TGI with K-562 leukemia and in the test on EKVX NSCLC was more than 100 µM each time.
For `O=C(Nc1ccccc1F)c1cc2ccc(O)cc2oc1=Nc1ccccc1F`, the TGI came to 6.11 µM with MOLT-4 leukemia; 6.18 µM in the test with NCI-H460 lung; 5.89 µM in the test with A549 NSCLC; 5.27 µM in the test with MDA-N; 5.9 µM in the test on UACC-62 melanoma; 4.46 µM in the test with CAKI-1 renal. Further, the figures for the TGI in the test on SK-MEL-28 melanoma, in the test with K-562 leukemia and with EKVX NSCLC were 5.8 µM, 7.64 µM and 6.01 µM, respectively.
Take `NNC1=N/C(=C\c2ccco2)C(Cl)=N1`: the TGI in the test on MOLT-4 leukemia was 34.9 µM; in the test with SNB-75 CNS, more than 100 µM; with A549 NSCLC, more than 100 µM; in the test on MDA-N, more than 100 µM; with CAKI-1 renal it was more than 100 µM; in the test with SK-MEL-28 melanoma, more than 100 µM. Also, the results for the TGI with K-562 leukemia and in the test with EKVX NSCLC were 42 µM and more than 100 µM, respectively.
Consider `C=C1c2cc3c(cc2CC12Cc1cc4c(cc1C2=O)CCC4)CCC3` (configuration not stated), for which the TGI in the test with MOLT-4 leukemia, in the test on NCI-H460 lung, in the test on SNB-75 CNS, in the test with A549 NSCLC, in the test with MDA-N and in the test on CAKI-1 renal was more than 100 µM throughout. Moreover, the TGI in the test with SK-MEL-28 melanoma, with K-562 leukemia and in the test with EKVX NSCLC was more than 100 µM throughout.
For the compound `COC(=O)CCc1cc(OC)c2c(c1)[C@H](C(=O)OC)[C@@H](c1ccc(O)c(OC)c1)O2`, the TGI is more than 100 µM in the test on MOLT-4 leukemia; more than 100 µM with NCI-H460 lung; more than 100 µM in the test with SNB-75 CNS; more than 100 µM with A549 NSCLC; 44.6 µM in the test with MDA-N; more than 100 µM with UACC-62 melanoma. The figures for the TGI with SK-MEL-28 melanoma, in the test on K-562 leukemia and in the test on EKVX NSCLC were more than 100 µM, 50.4 µM and more than 100 µM, respectively.
Consider `CC(=O)O[C@H]1C(=O)[C@@]2(C)[C@H]([C@H](OC(=O)c3ccc(F)cc3)[C@]3(O)C[C@H](OC(=O)[C@H](O)[C@@H](NC(=O)c4ccccc4)c4ccccc4)C(C)=C1C3(C)C)[C@]1(OC(C)=O)CO[C@@H]1C[C@@H]2O`, for which the TGI with MOLT-4 leukemia was 2.6 µM; in the test with SNB-75 CNS it was 0.659 µM; with A549 NSCLC, more than 25 µM; in the test with MDA-N it was 0.00496 µM; with UACC-62 melanoma it was more than 25 µM; in the test on CAKI-1 renal, more than 25 µM. The TGI with SK-MEL-28 melanoma is more than 25 µM; in the test with K-562 leukemia it was 0.172 µM; with EKVX NSCLC, more than 25 µM.
On to `Cc1ccc(CC[P+](=O)CCc2ccc(C)nc2)cn1`, for which the TGI in the test on MOLT-4 leukemia, in the test on NCI-H460 lung, with MDA-N, with UACC-62 melanoma, in the test with CAKI-1 renal and in the test with SK-MEL-28 melanoma was more than 100 µM each time. For the same compound, the TGI with K-562 leukemia and in the test on EKVX NSCLC was more than 100 µM throughout.
For `O=C(Oc1cc(=O)c(OC(=O)c2ccccc2)co1)c1ccccc1`, the TGI in the test with MOLT-4 leukemia, in the test on NCI-H460 lung, in the test on SNB-75 CNS, with A549 NSCLC, with MDA-N and in the test on UACC-62 melanoma was more than 100 µM throughout. Moreover, the TGI in the test on CAKI-1 renal and in the test on SK-MEL-28 melanoma was more than 100 µM each time.
`COc1ccc(-c2c3c([nH]c(=S)c2C#N)CC(C)(C)CC3=O)cc1`: the TGI in the test on MOLT-4 leukemia, in the test with NCI-H460 lung, in the test with A549 NSCLC, in the test on MDA-N, in the test with UACC-62 melanoma and in the test on CAKI-1 renal was more than 100 µM throughout. The TGI in the test on SK-MEL-28 melanoma, with K-562 leukemia and in the test with EKVX NSCLC was more than 100 µM in each case.
Take `CC1NC(=O)[C@H](C)N(C)C(=O)[C@@H]2CCCN2C(=O)[C@@H](NC(=O)C(Cc2ccccc2)NC(=O)/C=C/C=C/C=C/C=C/C=C/C(=O)NC2=C(O)CCC2=O)COC(=O)[C@@H]2CCCN2C1=O` (some centres not stated) (X26-[ξF]SP[NMeA][ξA]P; ester 2-C): the TGI with NCI-H460 lung, in the test on SNB-75 CNS, in the test on A549 NSCLC, in the test with MDA-N, in the test on UACC-62 melanoma and in the test with CAKI-1 renal was more than 100 µM in each case. Besides, the TGI in the test on SK-MEL-28 melanoma, with K-562 leukemia and in the test with EKVX NSCLC was more than 100 µM in each case.

For the origin of these results see PubChem BioAssay (NCI).
